logP data for 17 compounds are collected here from the SangsterLogP compilation.

One may read the logP as the decadic logarithm of the partition coefficient of the neutral form, usually between octanol and water. Low readings indicate lower lipophilicity, high ones higher lipophilicity.

Assay in the first data set: not given
As for `Cc1nc2ccccc2c(=O)n1CC(=O)N1CCCCC1`, the logP is 1.42.
On the same count and under the same terms, next, `COC(=O)c1cc(NC(=O)Cn2c(C)nc3ccccc3c2=O)cc(C(=O)OC)c1`: 2.98.
Regarding `Cc1nc2ccccc2c(=O)n1CC(=O)NCc1ccccc1`, the lipophilicity (logP) was 1.78.
The compound `Cc1nc2ccccc2c(=O)n1CC(=O)Nc1c(C)n(C)n(-c2ccccc2)c1=O` returned a logP of 1.07.
`CCOC(=O)c1nc2ccccc2c(=O)[nH]1`: the logP was found to be 0.64.
Compound `Cc1nc2ccccc2c(=O)n1CC(=O)NNc1ccccc1` showed a logP of 1.34.
Still for that read-out and setting: under `Cc1nc2ccccc2c(=O)n1CC(=O)N1CCOCC1` stands 0.45.
On the same count and under the same terms, next, `Cc1cc(C)nc(NS(=O)(=O)c2ccc(NC(=O)Cn3c(C)nc4ccccc4c3=O)cc2)n1`: 0.7; `Cc1nc2ccccc2c(=O)n1CC(=O)NCc1ccco1`: 1.24.
Still for that read-out and setting: under `CCOc1ccc(NC(=O)Cn2c(C)nc3ccccc3c2=O)cc1` stands 2.19.
The compound `Cc1nc2ccccc2c(=O)n1CC(=O)Nc1ccc(S(=O)(=O)NC(=N)N)cc1` yielded a logP of 0.09.
Same read-out and setting: next, `COC(=O)CNC(=O)Cn1c(C)nc2ccccc2c1=O`: 0.44; `COC(=O)c1ccc(C(=O)OC)c(NC(=O)Cn2c(C)nc3ccccc3c2=O)c1`: 3.53; `CCN(CC)C(=O)Cn1c(C)nc2ccccc2c1=O`: 1.14.

A further data set in a line: method code SF, from PMID: 10544519.
For `COC(=O)Cn1c(C)nc2ccccc2c1=O`, the logP was determined as 1.46.
`Cc1nc2ccccc2c(=O)n1CCC(=O)O`: the logP turned out to be 0.64.
`Cc1nc2ccccc2c(=O)n1CC(=O)O` displayed a logP of 0.08.
